In ChEMBL document CHEMBL1136356, “Rational design of antimicrobial agents: antifungal activity of alk(en)yl dihydroxybenzoates and dihydroxyphenyl alkanoates” (Bioorg Med Chem Lett, 2003):
≈ marks a conversion by molar mass, not a printed value.

How the values were obtained:
Saccharomyces cerevisiae [1] = assay: microbe, parasite or virus in culture; details: ATCC 7754
Description: (§1) Antifungal activity against Saccharomyces cerevisiae ATCC 7754

Saccharomyces cerevisiae [2] = assay: microbe, parasite or virus in culture; details: ATCC 7754; remark: listed apart in the source
Description: as §1

physchem = details: octanol/water
Description: Partition coefficient (logP)

Row | SMILES | MIC (Saccharomyces cerevisiae [1]) [µg/mL] | MFC (Saccharomyces cerevisiae [2]) [µg/mL] | logP (physchem)
1 | CCCCCCCC(C)OC(=O)c1ccc(O)c(O)c1 (configuration not stated) | 25 (≈ 89.2 µM) | 25 (≈ 89.2 µM) | 4.3
2 | CCCCOC(=O)c1ccc(O)c(O)c1 | 200 (≈ 951 µM) | 400 (≈ 1900 µM) | 2.32
3 | CCCCCC/C=C/COC(=O)c1ccc(O)c(O)c1 | 6.25 (≈ 22.5 µM) | 6.25 (≈ 22.5 µM) | 4.22
4 | CCCCCCCCCCCOC(=O)c1cc(O)cc(O)c1O | 25 (≈ 77.1 µM) | 25 (≈ 77.1 µM) | 4.83
5 | O=C(OCC1CCCCC1)c1ccc(O)c(O)c1 | 50 (≈ 200 µM) | 50 (≈ 200 µM) | 3.05
6 | CCCCCCC(CC)OC(=O)c1ccc(O)c(O)c1 (configuration not stated) | 12.5 (≈ 44.6 µM) | 12.5 (≈ 44.6 µM) | 4.37
7 | CCCCCCCCCCCOC(=O)c1ccc(O)c(O)c1 | > 400 | > 400 | 5.24
8 | CCCCCCCOC(=O)c1cc(O)cc(O)c1O | 200 (≈ 745 µM) | 200 (≈ 745 µM) | 3.16
9 | CCCCCCCCCCOC(=O)c1cc(O)cc(O)c1O | 12.5 (≈ 40.3 µM) | 25 (≈ 80.5 µM) | 4.42
10 | O=C(OC1CCC2CCCCC2C1)c1ccc(O)c(O)c1 (configuration not stated) | 25 (≈ 86.1 µM) | 25 (≈ 86.1 µM) | 3.62
11 | CCCOC(=O)c1ccc(O)c(O)c1 | > 400 | > 400 | 1.9
12 | CCCCCCCCCCCCOC(=O)c1cc(O)cc(O)c1O | > 400 | > 400 | 5.25
13 | CCCCCCCCCCCCCOC(=O)c1cc(O)cc(O)c1O | > 400 | > 400 | 5.67
14 | CC1(C)C2CCC1(C)C(OC(=O)c1ccc(O)c(O)c1)C2 (configuration not stated) | 50 (≈ 172 µM) | 50 (≈ 172 µM) | 3.78
15 | CCCCCOC(=O)c1ccc(O)c(O)c1 | 100 (≈ 446 µM) | 100 (≈ 446 µM) | 2.73
16 | CCCCCCCCOC(=O)c1cc(O)cc(O)c1O | 50 (≈ 177 µM) | 100 (≈ 354 µM) | 3.58
17 | CC1CCC(C(C)C)C(OC(=O)c2ccc(O)c(O)c2)C1 (configuration not stated) | 12.5 (≈ 42.8 µM) | 12.5 (≈ 42.8 µM) | 4.1
18 | CCCCCC/C=C\COC(=O)c1ccc(O)c(O)c1 | 6.25 (≈ 22.5 µM) | 6.25 (≈ 22.5 µM) | 4.22
19 | CC(C)=CCC/C(C)=C/COC(=O)c1ccc(O)c(O)c1 | 12.5 (≈ 43.1 µM) | 12.5 (≈ 43.1 µM) | 3.84
20 | CC(C)=CCC/C(C)=C\COC(=O)c1ccc(O)c(O)c1 | 12.5 (≈ 43.1 µM) | 25 (≈ 86.1 µM) | 3.84
21 | CCCCCCCCCOC(=O)c1cc(O)cc(O)c1O | 25 (≈ 84.4 µM) | 25 (≈ 84.4 µM) | 4
22 | CCCCCCCOC(=O)c1ccc(O)c(O)c1 [HEPTYL 3,4-DIHYDROXYBENZOATE] | 12.5 (≈ 49.5 µM) | 12.5 (≈ 49.5 µM) | 3.57
23 | CCCCCCOC(=O)c1ccc(O)c(O)c1 [HEXYL 3,4-DIHYDROXYBENZOATE] | 25 (≈ 105 µM) | 25 (≈ 105 µM) | 3.15
24 | Clc1ccc(COC(Cn2ccnc2)c2ccc(Cl)cc2Cl)c(Cl)c1 (configuration not stated) [MICONAZOLE] | 6.25 (≈ 15 µM) | 50 (≈ 120 µM) | –
25 | CCCCCCCCCOC(=O)c1ccc(O)c(O)c1 [NONYL 3,4-DIHYDROXYBENZOATE] | 6.25 (≈ 22.3 µM) | 1.25 (≈ 4.46 µM) | 4.4
26 | CCCCCCCCOC(=O)c1ccc(O)c(O)c1 [OCTYL 3,4-DIHYDROXYBENZOATE] | 6.25 (≈ 23.5 µM) | 12.5 (≈ 46.9 µM) | 3.99
